Calls of active or inactive are those of the source.
Tests used:
[1] = target: T1, Histone-lysine N-methyltransferase NSD2 (Homo sapiens, UniProt O96028); format: biochemical
T1 sequence (O96028 whole entry): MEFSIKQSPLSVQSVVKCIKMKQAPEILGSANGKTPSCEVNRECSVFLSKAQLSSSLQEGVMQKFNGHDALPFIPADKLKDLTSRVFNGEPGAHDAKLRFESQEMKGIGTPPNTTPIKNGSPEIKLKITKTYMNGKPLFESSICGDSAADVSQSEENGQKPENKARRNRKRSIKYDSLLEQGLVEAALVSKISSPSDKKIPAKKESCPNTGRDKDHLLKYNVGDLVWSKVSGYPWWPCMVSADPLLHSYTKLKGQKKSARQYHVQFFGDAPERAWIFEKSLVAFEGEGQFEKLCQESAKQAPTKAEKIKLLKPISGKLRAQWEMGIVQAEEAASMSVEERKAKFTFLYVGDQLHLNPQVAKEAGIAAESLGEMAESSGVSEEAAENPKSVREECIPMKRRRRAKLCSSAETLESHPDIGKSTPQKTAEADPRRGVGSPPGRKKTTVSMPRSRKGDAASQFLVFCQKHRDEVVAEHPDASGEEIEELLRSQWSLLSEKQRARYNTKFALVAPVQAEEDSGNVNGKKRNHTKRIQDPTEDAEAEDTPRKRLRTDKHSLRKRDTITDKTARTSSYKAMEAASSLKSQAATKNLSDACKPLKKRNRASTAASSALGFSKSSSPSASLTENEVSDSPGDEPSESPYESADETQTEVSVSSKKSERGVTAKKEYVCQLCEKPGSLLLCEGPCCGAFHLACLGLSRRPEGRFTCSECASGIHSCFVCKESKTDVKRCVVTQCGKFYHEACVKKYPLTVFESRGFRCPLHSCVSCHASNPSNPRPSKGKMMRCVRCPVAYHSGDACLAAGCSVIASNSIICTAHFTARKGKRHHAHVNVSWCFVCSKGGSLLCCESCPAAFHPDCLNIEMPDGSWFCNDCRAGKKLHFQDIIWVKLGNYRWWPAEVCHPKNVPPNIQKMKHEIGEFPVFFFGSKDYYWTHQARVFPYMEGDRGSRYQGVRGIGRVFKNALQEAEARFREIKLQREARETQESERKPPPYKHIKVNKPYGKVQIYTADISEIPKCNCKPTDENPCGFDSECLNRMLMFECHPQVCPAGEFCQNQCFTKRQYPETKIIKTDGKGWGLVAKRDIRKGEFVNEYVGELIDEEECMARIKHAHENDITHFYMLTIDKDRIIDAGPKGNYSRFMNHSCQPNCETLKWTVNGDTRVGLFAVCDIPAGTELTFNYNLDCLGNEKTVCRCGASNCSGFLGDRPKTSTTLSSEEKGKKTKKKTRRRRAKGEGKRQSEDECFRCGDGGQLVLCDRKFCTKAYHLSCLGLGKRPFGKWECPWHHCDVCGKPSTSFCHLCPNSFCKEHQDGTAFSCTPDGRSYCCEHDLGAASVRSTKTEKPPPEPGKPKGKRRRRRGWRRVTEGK

[2] = HepG2 cell cytotoxicity, dose response, cytotoxicity control for non-replicating M. tuberculosis project (AID 489018); format: functional; conditions: Mycobacterium tuberculosis
cells [3] = format: functional
Bcl-2-like protein 10 = target: T2, Bcl-2-like protein 10 (Homo sapiens, UniProt Q9HD36); experiment: displacers of TR3 peptide from Bcl-B, primary screen, selectivity assay for Bfl-1 inhibitor project, biochemical, fluorescence polarization, FITC-TR3 peptide (AID 748);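 also: fluorescence polarization from a fluorescein-labelled TR3 peptide binding purified Bcl-B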
T2 sequence (Q9HD36 whole entry): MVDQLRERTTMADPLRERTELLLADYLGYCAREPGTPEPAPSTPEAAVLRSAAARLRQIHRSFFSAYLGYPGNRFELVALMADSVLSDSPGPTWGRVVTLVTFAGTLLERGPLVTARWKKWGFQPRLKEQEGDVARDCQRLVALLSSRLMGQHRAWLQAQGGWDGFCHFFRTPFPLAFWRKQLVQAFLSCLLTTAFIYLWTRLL

[4] = target: T3, Rac GTPase-activating protein 1 (Homo sapiens, UniProt Q9H0H5); experiment: MgcRacGAP GTPase-activating activity inhibitors, confirmation, biochemical, ADP Hunter fluorescence, primary and confirmatory (AID 624330); format: functional
T3 sequence (Q9H0H5 whole entry): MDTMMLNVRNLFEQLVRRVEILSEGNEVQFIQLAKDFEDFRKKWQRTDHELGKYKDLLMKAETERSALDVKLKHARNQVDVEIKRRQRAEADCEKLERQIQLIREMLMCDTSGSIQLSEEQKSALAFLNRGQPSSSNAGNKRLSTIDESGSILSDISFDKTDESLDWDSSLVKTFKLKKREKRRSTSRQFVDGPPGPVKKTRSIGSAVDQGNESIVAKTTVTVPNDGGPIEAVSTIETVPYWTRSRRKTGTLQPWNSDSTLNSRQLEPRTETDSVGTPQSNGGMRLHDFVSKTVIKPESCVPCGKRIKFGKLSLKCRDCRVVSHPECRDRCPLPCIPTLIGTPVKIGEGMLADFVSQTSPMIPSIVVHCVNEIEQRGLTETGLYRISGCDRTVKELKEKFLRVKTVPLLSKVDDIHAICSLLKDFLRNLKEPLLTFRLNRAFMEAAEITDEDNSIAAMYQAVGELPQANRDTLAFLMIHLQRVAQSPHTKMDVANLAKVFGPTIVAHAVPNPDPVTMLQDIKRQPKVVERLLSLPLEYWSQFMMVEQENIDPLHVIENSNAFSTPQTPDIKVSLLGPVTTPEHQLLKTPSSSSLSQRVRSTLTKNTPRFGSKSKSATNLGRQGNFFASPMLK

Mu-type opioid receptor = Mu-type opioid receptor (Homo sapiens, UniProt P35372); format: functional, cell-based;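 also: U2OS cells with beta-arrestin recruitment to OPRM1 by beta-gal complementation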
Chain of Mu-type opioid receptor (P35372 whole entry): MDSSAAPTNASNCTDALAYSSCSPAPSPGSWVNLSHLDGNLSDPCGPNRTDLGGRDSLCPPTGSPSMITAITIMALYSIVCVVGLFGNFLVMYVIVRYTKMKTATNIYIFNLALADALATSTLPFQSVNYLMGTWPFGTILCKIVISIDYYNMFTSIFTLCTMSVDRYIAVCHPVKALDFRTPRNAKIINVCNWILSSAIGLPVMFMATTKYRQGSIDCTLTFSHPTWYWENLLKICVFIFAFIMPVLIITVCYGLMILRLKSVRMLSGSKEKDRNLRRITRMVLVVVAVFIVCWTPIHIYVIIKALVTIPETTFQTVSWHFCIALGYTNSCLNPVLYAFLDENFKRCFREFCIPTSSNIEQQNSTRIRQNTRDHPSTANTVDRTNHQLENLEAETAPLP

[5] = target: 5-hydroxytryptamine receptor 2A (Mus musculus, UniProt P35363); format: functional, cell-based;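 also: CHO-K1 cells with tagged receptor and beta-arrestin; agonist potency measured as compound-induced activation of the receptor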
Chain of 5-hydroxytryptamine receptor 2A (P35363 whole entry): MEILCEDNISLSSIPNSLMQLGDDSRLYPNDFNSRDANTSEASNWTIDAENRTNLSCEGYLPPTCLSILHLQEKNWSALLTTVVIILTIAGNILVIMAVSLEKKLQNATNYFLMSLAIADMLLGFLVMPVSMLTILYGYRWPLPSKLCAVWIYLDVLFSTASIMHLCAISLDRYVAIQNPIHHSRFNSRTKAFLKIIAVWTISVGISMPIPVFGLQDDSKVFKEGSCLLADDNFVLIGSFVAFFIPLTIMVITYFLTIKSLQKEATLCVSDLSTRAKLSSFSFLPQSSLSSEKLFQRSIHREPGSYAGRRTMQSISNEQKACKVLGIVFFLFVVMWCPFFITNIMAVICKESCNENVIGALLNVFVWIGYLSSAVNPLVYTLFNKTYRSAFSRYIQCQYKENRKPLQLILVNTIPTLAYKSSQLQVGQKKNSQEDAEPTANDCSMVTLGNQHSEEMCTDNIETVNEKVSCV

Protein Tat = target: T4, Protein Tat (Human immunodeficiency virus type 1 group M subtype B (isolate HXB2)(HIV-1), UniProt P04608); format: functional;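 also: tat binding to TAR RNA read out by fluorescence polarization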
T4 sequence (P04608 whole entry): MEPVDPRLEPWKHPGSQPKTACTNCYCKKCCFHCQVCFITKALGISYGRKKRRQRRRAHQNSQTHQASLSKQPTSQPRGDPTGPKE

[6] = target: T5, Oxysterols receptor LXR-beta (Homo sapiens, UniProt P55055); format: functional, cell-based;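 also: Cell-based luminescence dose-response assay of agonist activity at LXR, run as a confirmatory counterscreen to a daf-12 agonist screen; agonist potency from rising luciferase signal of a Gal4-LXR reporter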
T5 sequence (P55055 whole entry): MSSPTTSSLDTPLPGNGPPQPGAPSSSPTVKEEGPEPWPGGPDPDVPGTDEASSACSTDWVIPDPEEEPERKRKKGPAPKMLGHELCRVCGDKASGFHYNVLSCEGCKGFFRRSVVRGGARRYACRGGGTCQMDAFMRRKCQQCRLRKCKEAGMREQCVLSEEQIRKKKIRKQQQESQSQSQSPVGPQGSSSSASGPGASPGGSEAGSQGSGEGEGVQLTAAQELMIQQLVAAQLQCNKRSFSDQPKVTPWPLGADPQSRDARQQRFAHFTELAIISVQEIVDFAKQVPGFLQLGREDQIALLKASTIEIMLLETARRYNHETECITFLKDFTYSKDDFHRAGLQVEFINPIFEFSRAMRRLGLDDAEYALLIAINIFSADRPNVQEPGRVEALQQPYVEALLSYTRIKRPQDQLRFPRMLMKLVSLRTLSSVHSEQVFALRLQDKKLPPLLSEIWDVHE

[7] = target: T5, Oxysterols receptor LXR-beta; experiment: LXR agonists, Gal4 luciferase reporter, dose response, counter-screen for ssDAF-12 agonist project, cell-based, luminescence, HEK293, S. stercoralis campaign (AID 720737); format: functional; conditions: read-out: IC50 (the source's name)
cells [8] = experiment: cells
[9] = Luminescence-based cell-based high throughput dose response assay to identify activators of the DAF-12 from the parasite S. stercoralis (ssDAF-12).; format: functional
[10] = P. falciparum Dd2 growth inhibitors, dose response, SYBR Green, cherry-picked samples (AID 1159567); format: functional, cell-based
[11] = HepG2 cell cytotoxicity, dose response, cytotoxicity control, cherry-picked samples (AID 1159577); format: functional, cell-based
[12] = intracellular Trypanosoma cruzi inhibitors in host cells – cell-based, plate reader, cherry-pick samples, set 3, dose response (AID 651818); format: functional;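 also: compounds incubated with infected cells for about four days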
[13] = P. falciparum ATP4 D1247Y mutant growth inhibitors, dose response, NITD609-resistant line, SYBR Green, dry powder (AID 1159571); format: functional, cell-based;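 also: parasites synchronized at ring stage by sorbitol before testing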
[14] = P. falciparum 3D7-ScDHODH growth inhibitors, dose response, SYBR Green, dry powder samples (AID 1159570); format: functional, cell-based;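 also: parasite growth measured after 72 hours of compound exposure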
[15] = P. falciparum Dd2 growth inhibitors, dose response, SYBR Green, dry powder samples (AID 1159566); format: functional, cell-based;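 also: potency for growth inhibition with lower SYBR green DNA signal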
[16] = cytotoxicity in OVCAR8 ovarian cancer cells, dose response, PAX8 project, cell-based, plate reader, dry powder samples (AID 743197); format: functional; conditions: OVCAR-8
Paired box protein Pax-8 = Paired box protein Pax-8 (Homo sapiens, UniProt Q06710); experiment: inhibitors of PAX8-driven TPO luciferase reporter, dose response, RMG-I cells, cherry-pick (AID 687027); format: functional, cell-based;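 also: luciferase reporter driven by Pax8 target thyroperoxidase promoter measured by SteadyGlo luminescence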
Chain of Paired box protein Pax-8 (Q06710 whole entry): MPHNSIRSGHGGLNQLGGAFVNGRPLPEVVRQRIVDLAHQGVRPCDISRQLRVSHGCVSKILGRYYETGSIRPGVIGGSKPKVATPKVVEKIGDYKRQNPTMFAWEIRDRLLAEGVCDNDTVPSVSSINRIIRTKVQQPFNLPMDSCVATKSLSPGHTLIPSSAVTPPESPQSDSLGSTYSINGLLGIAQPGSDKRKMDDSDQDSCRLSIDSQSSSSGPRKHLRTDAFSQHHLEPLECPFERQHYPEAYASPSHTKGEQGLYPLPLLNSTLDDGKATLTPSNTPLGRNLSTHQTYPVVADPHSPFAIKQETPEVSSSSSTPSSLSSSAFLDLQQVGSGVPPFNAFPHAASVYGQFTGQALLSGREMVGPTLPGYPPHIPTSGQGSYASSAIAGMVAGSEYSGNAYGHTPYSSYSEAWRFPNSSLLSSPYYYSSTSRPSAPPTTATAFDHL

Prothrombin = Prothrombin (Homo sapiens, UniProt P00734); experiment: Thrombin 1536 HTS Dose Response Confirmation. [Related pubchem assays: 1046 (Thrombin 1536 HTS; hits were confirmed in this assay)]; format: functional
[17] = Luminescence Cell-Based Dose Confirmation HTS to Identify Inhibitors of Platelet Dense Granule Release. [Related pubchem assays: 1663 (Primary HTS), 1678 (Summary of Project)]; format: functional
[18] = LGR2 antagonists, dose response, cell-based, HEK293, CRE-luciferase reporter, cherry pick, set 2 (AID 743343); format: functional;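 also: transfected cells were stimulated with diluted bursicon conditioned medium after compound addition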
[19] = target: Luciferin 4-monooxygenase (Photinus pyralis, UniProt P08659); experiment: firefly luciferase enzyme inhibitors, dose response, biochemical, luminescence (AID 1891)
Chain of Luciferin 4-monooxygenase (P08659 whole entry): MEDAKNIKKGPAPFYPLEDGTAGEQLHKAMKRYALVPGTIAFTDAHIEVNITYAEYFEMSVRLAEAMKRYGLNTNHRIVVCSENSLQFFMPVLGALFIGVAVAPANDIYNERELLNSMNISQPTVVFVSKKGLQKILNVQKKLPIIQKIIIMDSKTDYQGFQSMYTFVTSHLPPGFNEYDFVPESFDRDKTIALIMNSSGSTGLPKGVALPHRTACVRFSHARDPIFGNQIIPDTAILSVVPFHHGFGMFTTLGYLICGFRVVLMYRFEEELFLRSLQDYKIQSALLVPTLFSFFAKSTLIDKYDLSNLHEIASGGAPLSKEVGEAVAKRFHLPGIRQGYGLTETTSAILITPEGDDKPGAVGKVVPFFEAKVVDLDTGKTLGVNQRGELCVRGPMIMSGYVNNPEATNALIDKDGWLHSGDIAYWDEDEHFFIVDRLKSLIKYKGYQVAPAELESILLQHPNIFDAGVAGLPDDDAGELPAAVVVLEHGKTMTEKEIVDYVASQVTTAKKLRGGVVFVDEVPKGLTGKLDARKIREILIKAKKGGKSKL

[20] = HepG2 cell cytotoxicity, dose response, cytotoxicity control, plate reader, cherry-pick, antagonist series (AID 743416); format: functional, cell-based
[21] = A549 cell cytotoxicity, dose response, cytotoxicity control, plate reader, cherry-pick, antagonist series (AID 743412); format: functional, cell-based
[22] = MC4R antagonists, dose response, counter-screen for LGR2 antagonist project, cell-based, plate reader, cherry pick (AID 743444); format: functional;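 also: transfected HEK 293 cells stimulated with alpha-MSH peptide; potency of inhibitors of the alpha-MSH evoked signal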
[23] = HEK293 cell cytotoxicity, dose response, cytotoxicity control, plate reader, cherry-picked samples (AID 743446); format: functional, cell-based
HEK293 = experiment: inhibitors of LMP1-driven NF-kB reporter, dose response, cell-based, HEK293, luciferase, cherry-pick (AID 588343); format: functional; conditions: Homo sapiens

Compound: CCN(CC)CCCNc1cc(C(F)(F)F)c(C#N)c2nc3ccccc3n12
- AC50 [1]: > 20 µM (inactive)

Compound: CCOc1ccc(C(=O)Nc2ccc(N3CCN(C)CC3)cc2)cc1Br
- CC50 [2]: > 20 µM (active)
- IC50 (cells [3]): 31.4 µM (active)
- IC50 (Bcl-2-like protein 10): 0.558 µM (active)

Compound: Cc1ccc(S(=O)(=O)N2CCOCC2)cc1NC(=O)CNCc1cccnc1
- IC50 [4]: 108 µM (active)
- EC50 (Mu-type opioid receptor): 92.5 µM (inactive)
- EC50 [5]: 6.05 µM (active)

Compound: Cc1cc(C)c(S(=O)(=O)NCC2CCC(C(=O)N3CCC4(CC3)OCCO4)CC2)c(C)c1 (configuration not stated)
- IC50 (Protein Tat): > 100 µM (active)

Compound: COc1ccc(-c2cn3ccc4ccccc4c3n2)cc1
- EC50 [6]: > 67.5 µM (inactive)
- EC50 [7]: > 67.5 µM (inactive)
- EC50 (cells [8]): > 67.5 µM (inactive)
- IC50 [9]: > 67.5 µM (inactive)

Compound: CCCNC(=O)N1[C@H](CO)[C@H](c2ccc(C3=CCCCC3)cc2)[C@H]1CNC(C)C
- AC50 [10]: 5.26 µM (active)
- AC50 [11]: 39.6 µM (active)

Compound: C[C@@H]1CN([C@H](C)CO)C(=O)c2cccc(NC(=O)Nc3cccc4ccccc34)c2O[C@@H]1CN(C)C(=O)Nc1ccc(C(F)(F)F)cc1
- AC50 [12]: 7.71 µM (active)
- AC50 [10]: 1.59 µM (active)
- AC50 [13]: 1.21 µM (active)
- AC50 [14]: 1.15 µM (active)
- AC50 [15]: 1.37 µM (active)

Compound: C[C@@H]1CN([C@@H](C)CO)C(=O)c2cc(C#CCc3ccccc3)cnc2O[C@H]1CN(C)CC1CCCC1
- AC50 [10]: 1.31 µM (active)
- AC50 [11]: 14.2 µM (active)

Compound: C[C@H]1CN([C@@H](C)CO)S(=O)(=O)c2ccc(-c3ccc(C#N)cc3)cc2O[C@@H]1CN(C)Cc1cccc(F)c1
- AC50 [16]: > 60 µM (inactive)
- AC50 (Paired box protein Pax-8): 8.67 µM (active)

Compound: O=C(O)c1ccc(/N=C/c2nc(-c3ccco3)oc2O)cc1
- IC50 (Prothrombin): > 50 µM (not active)

Compound: CCOc1ccc(C(=O)Nc2cc(C)ccn2)cc1
- EC50 [17]: 2.45 µM (active)
- AC50 [18]: 4.55 µM (active)
- EC50 [19]: 1.19 µM (active)
- AC50 [20]: 24.6 µM (active)
- AC50 [21]: 21 µM (active)
- AC50 [22]: 2.97 µM (active)
- AC50 [23]: 22.1 µM (active)
- AC50 (HEK293): 2.17 µM (active)

Source: ChEMBL document CHEMBL1201862, “PubChem BioAssay data set” (2004)
